{"source": "patent US12180187B2", "about": "“1-phenyl-5-azinylpyrazolyl-3-oxyalkyl acids and their use for controlling unwanted plant growth” (BAYER AKTIENGESELLSCHAFT, priority 2019, dated 2024)", "key": {"ALOMY [1]": {"system": "ALOMY", "assay": "Pre-emergence action at 320 g/ha against ALOMY", "format": "in vivo, Alopecurus myosuroides", "details": "scored visually after about 3 weeks vs untreated controls (100% = plants have died)", "summary_of_the_method": "(§1)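 Application: aqueous WP or EC with 0.5% additive on soil covering seeds, 600 l/ha. Read-out: visual percent damage after ~3 weeks in greenhouse, untreated pots as reference.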"}, "AVEFA [2]": {"system": "AVEFA", "assay": "Pre-emergence action at 320 g/ha against AVEFA", "format": "in vivo", "details": "visual scoring after about 3 weeks vs untreated controls", "summary_of_the_method": "as §1"}, "DIGSA [3]": {"system": "DIGSA", "assay": "Pre-emergence action at 320 g/ha against DIGSA", "format": "in vivo, Digitaria sanguinalis", "details": "visual scoring after about 3 weeks vs untreated controls", "summary_of_the_method": "as §1"}, "ECHGC": {"system": "ECHGC", "assay": "Pre-emergence action at 320 g/ha against ECHGC", "format": "in vivo, Echinochloa crus-galli", "details": "visual scoring after about 3 weeks vs untreated controls", "summary_of_the_method": "as §1"}, "LOLRI": {"system": "LOLRI", "assay": "Pre-emergence action at 320 g/ha against LOLRI", "format": "in vivo, Lolium rigidum", "details": "visual scoring after about 3 weeks vs untreated controls", "summary_of_the_method": "as §1"}, "SETVI [4]": {"system": "SETVI", "assay": "Pre-emergence action at 320 g/ha against SETVI", "format": "in vivo, Setaria viridis", "details": "visual scoring after about 3 weeks vs untreated controls", "summary_of_the_method": "as §1"}, "AMARE [5]": {"system": "AMARE", "assay": "Pre-emergence action at 320 g/ha against AMARE", "format": "in vivo, Amaranthus retroflexus", "details": "visual scoring after about 3 weeks vs untreated controls", "summary_of_the_method": "as §1"}, "POLCO [6]": {"system": "POLCO", "assay": "Pre-emergence action at 320 g/ha against POLCO", "format": "in vivo, Fallopia convolvulus (Polygonum convolvulus)", "details": "visual scoring after about 3 weeks vs untreated controls", "summary_of_the_method": "as §1"}, "VERPE": {"system": "VERPE", "assay": "Pre-emergence action at 320 g/ha against VERPE", "format": "in vivo, Veronica persica", "details": "visual scoring after about 3 weeks vs untreated controls", "summary_of_the_method": "as §1"}, "VIOTR [7]": {"system": "VIOTR", "assay": "Pre-emergence action at 320 g/ha against VIOTR", "format": "in vivo, Viola tricolor", "details": "dosage 320 g/ha", "summary_of_the_method": "as §1"}, "ALOMY [8]": {"system": "ALOMY", "assay": "Post-emergence action against ALOMY, 320 g/ha", "format": "in vivo, Alopecurus myosuroides", "details": "dosage 320 g/ha, visual rating about 3 weeks after treatment vs untreated controls (100% = plants died)", "source_text": "(§2) Accordingly, the compounds of the invention have good herbicidal action against a broad spectrum of weed grasses and broad-leaved weeds and are therefore suitable for controlling unwanted vegetation by the post-emergence method. • b) Seeds of monocotyledonous and dicotyledonous weeds and crop plants are placed in sandy loam in plastic or organic planting pots, covered with soil and cultivated in a greenhouse under controlled growth conditions. 2 to 3 weeks after sowing, the test plants are treated at the one-leaf stage. The compounds of the invention, formulated in the form of wettable powders (WP) or as emulsion concentrates (EC), are then sprayed onto the green parts of the plants as aqueous suspension or emulsion with addition of 0.5% additive at a water application rate of 600 l/ha (converted). After the test plants have been kept in the greenhouse under optimum growth conditions for about 3 weeks, the activity of the preparations is rated visually in comparison to untreated controls. For example, 100% activity=the plants have died, 0% activity=like control plants. Tables 39 to 49 below show the effects of selected compounds of the general formula (I) according to Tables 1 and 2 on various harmful plants and at an application rate corresponding to 320 g/ha, which were obtained by the experimental procedure mentioned above."}, "DIGSA [9]": {"system": "DIGSA", "assay": "Post-emergence action at 320 g/ha against DIGSA", "format": "in vivo, Digitaria sanguinalis", "details": "dosage 320 g/ha, visual rating about 3 weeks after treatment vs untreated controls (100% = plants died)", "source_text": "as §2"}, "ECHCG": {"system": "ECHCG", "assay": "Post-emergence action at 320 g/ha against ECHCG", "format": "in vivo, Echinochloa crus-galli", "details": "dosage 320 g/ha, visual rating about 3 weeks after treatment vs untreated controls (100% = plants died)", "source_text": "as §2"}, "ABUTH": {"system": "ABUTH", "assay": "Post-emergence action at 320 g/ha against ABUTH", "format": "in vivo, Abutilon theophrasti", "details": "visual rating about 3 weeks after treatment vs untreated controls", "source_text": "as §2"}, "AMARE [10]": {"system": "AMARE", "assay": "Post-emergence action at 320 g/ha against AMARE", "format": "in vivo, Amaranthus retroflexus", "details": "visual rating about 3 weeks after treatment vs untreated controls", "source_text": "as §2"}, "SETVI [11]": {"system": "SETVI", "assay": "Post-emergence action at 320 g/ha against SETVI", "format": "in vivo, Setaria viridis", "details": "visual rating about 3 weeks after treatment vs untreated controls", "source_text": "as §2"}, "PHBPU": {"system": "PHBPU", "assay": "Post-emergence action at 320 g/ha against PHBPU", "format": "in vivo", "details": "visual rating about 3 weeks after treatment vs untreated controls", "source_text": "as §2"}, "POLCO [12]": {"system": "POLCO", "assay": "Post-emergence action at 320 g/ha against POLCO", "format": "in vivo, Fallopia convolvulus (Polygonum convolvulus)", "details": "visual rating about 3 weeks after treatment vs untreated controls", "source_text": "as §2"}, "VIOTR [13]": {"system": "VIOTR", "assay": "Post-emergence action at 320 g/ha against VIOTR", "format": "in vivo, Viola tricolor", "details": "visual rating about 3 weeks after treatment vs untreated controls", "source_text": "as §2"}, "AVEFA [14]": {"system": "AVEFA", "assay": "Post-emergence action at 320 g/ha against AVEFA", "format": "in vivo", "details": "visual rating about 3 weeks after treatment vs untreated controls", "source_text": "as §2"}}}
{"smiles": "CCOC(=O)COc1nn(-c2ccccc2F)c(-c2ccc(F)nc2)c1F", "note": "[VII-034]", "values": [{"measurement": "Pre-emergence action at 320 g/ha against ALOMY in %", "setting": "ALOMY [1]", "result": 90, "unit": "%"}, {"measurement": "Pre-emergence action against AVEFA in %", "setting": "AVEFA [2]", "result": 90, "unit": "%"}, {"measurement": "Pre-emergence action against DIGSA in %", "setting": "DIGSA [3]", "result": 100, "unit": "%"}, {"measurement": "Pre-emergence action against ECHGC in %", "setting": "ECHGC", "result": 90, "unit": "%"}, {"measurement": "Pre-emergence action against LOLRI in %", "setting": "LOLRI", "result": 90, "unit": "%"}, {"measurement": "Pre-emergence action against SETVI in %", "setting": "SETVI [4]", "result": 100, "unit": "%"}, {"measurement": "Pre-emergence action against AMARE in %", "setting": "AMARE [5]", "result": 100, "unit": "%"}, {"measurement": "Pre-emergence action against POLCO in %", "setting": "POLCO [6]", "result": 90, "unit": "%"}, {"measurement": "Pre-emergence action against VERPE in %", "setting": "VERPE", "result": 80, "unit": "%"}, {"measurement": "Pre-emergence action against VIOTR in %", "setting": "VIOTR [7]", "result": 100, "unit": "%"}, {"measurement": "Post-emergence action against ALOMY", "setting": "ALOMY [8]", "result": 90, "unit": "%"}, {"measurement": "Post-emergence action at 320 g/ha against DIGSA in %", "setting": "DIGSA [9]", "result": 90, "unit": "%"}, {"measurement": "Post-emergence action at 320 g/ha against ECHCG in %", "setting": "ECHCG", "result": 90, "unit": "%"}, {"measurement": "Post-emergence action against ABUTH in %", "setting": "ABUTH", "result": 80, "unit": "%"}, {"measurement": "Post-emergence action against AMARE in %", "setting": "AMARE [10]", "result": 80, "unit": "%"}, {"measurement": "Post-emergence action against SETVI in %", "setting": "SETVI [11]", "result": 90, "unit": "%"}, {"measurement": "Post-emergence action against PHBPU in %", "setting": "PHBPU", "result": 90, "unit": "%"}, {"measurement": "Post-emergence action against POLCO in %", "setting": "POLCO [12]", "result": 80, "unit": "%"}, {"measurement": "Post-emergence action against VIOTR in %", "setting": "VIOTR [13]", "result": 80, "unit": "%"}, {"measurement": "Post-emergence action against AVEFA in %", "setting": "AVEFA [14]", "result": 90, "unit": "%"}]}
